Reference: patent publication US7759326B2, “Aminophosphonic acid derivative, salt thereof, and modulator of S1P receptor” (Kyorin Pharmaceutical Co., Ltd., priority 2003, dated 2010)
Counter-ions that a name gives are not always drawn.

Key:
hS1P3 receptors = target: T1, hS1P3 receptors (Homo sapiens, UniProt Q99500); experiment: Intracellular Ca2+ mobilization in CHO cells expressing human S1P receptors (hS1P3); type: cell-based; settings: read-out: S1P3 (EC50 class, intracellular Ca2+ mobilization)
T1 construct: expressed in transfected cells; host or cells: CHO cells (Geneticin-selected)
T1 sequence (Q99500 whole entry): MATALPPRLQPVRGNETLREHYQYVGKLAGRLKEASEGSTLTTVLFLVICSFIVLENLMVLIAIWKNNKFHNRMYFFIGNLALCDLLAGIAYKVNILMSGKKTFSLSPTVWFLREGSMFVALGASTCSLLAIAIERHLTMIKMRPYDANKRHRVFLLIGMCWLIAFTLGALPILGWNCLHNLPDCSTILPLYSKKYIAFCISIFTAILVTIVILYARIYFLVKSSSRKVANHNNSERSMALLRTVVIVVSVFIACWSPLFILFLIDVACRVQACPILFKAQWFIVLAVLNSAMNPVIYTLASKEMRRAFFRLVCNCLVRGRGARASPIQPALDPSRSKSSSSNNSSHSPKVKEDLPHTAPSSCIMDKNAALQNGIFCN
Method: (§1) Test for the Ability of Test Compounds to Induce Intracellular Ca^2+ Mobilization in Cells Expressing Human S1P (Sphingosine-1-Phosphate) Receptors
(§2) CHO cells expressing human S1P receptors (i.e., CHO cells expressing hS1P1 receptors or hS1P3 receptors) were subcultured on Ham's F-12 medium supplemented with 10% fetal bovine serum and 200 μg/mL Geneticin. The cells were seeded on a 96-well black clear bottom plate (COSTAR) at 4×10^4 cells/well and were cultured overnight at 37° C. in 5% CO2. A fluorescent reagent that emits fluorescence upon binding to Ca^2+ (Calcium Screening Kit (DOJINDO)) was added to the culture and the cells were further cultured for 60 min at 37° C. in 5% CO2. After culturing, microplate spectrofluorometer (FLEX station, MOLECULAR DEVICE) was used to measure the fluorescence intensity at an excitation wavelength of 485 nm and a detection wavelength of 525 nm. S1P or a test compound adjusted with cultural medium to a concentration 10 times higher than the final concentration (final DMSO concentration=0.1%). Each test compound solution was added 18 sec. after beginning of the measurement of fluorescence. The fluorescence intensity was measured every 1.5 sec for 100 sec. For each test compound, the difference between the maximum fluorescence intensity and the minimum fluorescence intensity (i.e., increase in fluorescence) was determined from the measurements. The rate of fluorescence increase (%) for each test compound was calculated by the difference (100%) of the fluorescence increase between solvent only and S1P (10^−6M). Using this value as an index of the ability of the test compound to induce intracellular Ca^2+ mobilization, EC50 was determined by PRISM software (GraphPad).

hS1P1 receptors = target: T2, hS1P1 receptors (Homo sapiens, UniProt P21453); experiment: Intracellular Ca2+ mobilization in CHO cells expressing human S1P receptors (hS1P1); type: cell-based; settings: read-out: S1P1 (EC50 class, intracellular Ca2+ mobilization)
T2 construct: expressed in transfected cells; host or cells: CHO cells (Geneticin-selected)
T2 sequence (P21453 whole entry): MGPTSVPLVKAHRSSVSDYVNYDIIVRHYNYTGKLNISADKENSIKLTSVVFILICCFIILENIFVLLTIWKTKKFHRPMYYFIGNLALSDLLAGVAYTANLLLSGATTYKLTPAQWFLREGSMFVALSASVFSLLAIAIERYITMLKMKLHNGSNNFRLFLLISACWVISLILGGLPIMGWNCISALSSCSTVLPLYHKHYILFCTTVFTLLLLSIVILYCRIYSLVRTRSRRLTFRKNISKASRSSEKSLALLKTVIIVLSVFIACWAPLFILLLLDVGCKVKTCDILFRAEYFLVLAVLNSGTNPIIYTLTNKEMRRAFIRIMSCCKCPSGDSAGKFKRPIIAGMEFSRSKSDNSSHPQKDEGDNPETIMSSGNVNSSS
Method: as §1, §2

[1] = system: host vs. graft rejection in mice; experiment: Inhibitory effects on host vs. graft rejection in mice (right popliteal lymph node weight); type: in vivo, C3H/HeN mice; settings: Mus musculus, Dose 0.03 mg/kg
Method: Inhibitory Effects of Test Compounds on Host Vs. Graft Rejection in Mice
This experiment was performed according to the method described in Transplantation 55(3) (1993): 578-591. Spleens were collected from 6 to 16 week old male BALB/c mice (CHARLES RIVER JAPAN). The spleens were placed in an RPMI-1640 medium (SIGMA) and were gently pressed between two slide glasses and then passed through a cell strainer (70 μm, Falcon) to form a cell suspension. The suspension was then centrifuged and the supernatant was discarded. An ammonium chloride-Tris isotonic buffer was added to the suspension to lyse erythrocytes. The cells were then centrifuged three times in RPMI-1640 medium for washing and were resuspended in an RPMI-1640 medium. To this suspension, mitomycin C (KYOWA HAKKO KOGYO Co., Ltd.) was added to a final concentration of 25 μg/mL and the suspension was incubated for 30 minutes at 37° C. in a 5% CO2 atmosphere. The cells were centrifuged three times in RPMI-1640 medium for washing and were resuspended in an RPMI-1640 medium so that the medium would contain 2.5×10^8 cells/mL. This suspension served as a “stimulation cell suspension.” Using a 27 G needle with a microsyringe (Hamilton), 20 μL (5×10^6 cells/mouse) of the stimulation cell suspension was subcutaneously injected into the right hind footpad of 6 to 8 week old male C3H/HeN mice (CLEA JAPAN). Normal control group was injected with RPMI-1640 medium alone. 4 days after the injection, right popliteal lymph nodes were collected and were weighed on a Mettler AT201 electronic scale (METTLER TOLEDO Co., Ltd.). Each animal was intraperitoneally administered a test compound once a day for four consecutive days starting on the day of the injection of the stimulation cells (i.e., total of 4 times). Control groups were administered the same vehicle as that used in the preparation of each test compound. The inhibition (%) was determined using the following formula {[Weight of right popliteal lymph nodes of positive control group]−[Weight of right popliteal lymph nodes of test compound group]×100}/{[Weight of right popliteal lymph nodes of positive control group]−[Weight of right popliteal lymph nodes of normal control group]} Formula 1

Row | SMILES | EC50 (hS1P3 receptors) | melting point | EC50 (hS1P1 receptors) | inhibition in vivo at 0.03 mg/kg [1]
1 | CC(N)(/C=C/P(=O)(O)O)CCCc1ccc(Sc2cccc(OCc3ccccc3)c2)cc1Cl (racemic) [Example 261, 3-amino-6-[4-(3-benzyloxyphenylthio)-2-chlorophenyl]-3-methyl-1-hexenylphosphonic acid] | ≥ 1000 nM | 243 to 245 °C | 100 to 1000 nM | –
2 | COP(=O)(OC)OCC(C)(CCc1ccc(Sc2cccc(OCc3ccccc3)c2)cc1Cl)NC(=O)OC(C)(C)C (single isomer, unassigned; (+)) [Example 247, (+)-4-[4-(3-benzyloxyphenylthio)-2-chlorophenyl]-2-t-butoxycarbonylamino-1-dimethoxyphosphoryloxy-2-methylbutane] | – | – | – | 63%
3 | CC(N)(CCc1ccc(Sc2cccc(OCc3ccccc3)c2)cc1Cl)COP(=O)(O)O (single isomer, unassigned; (+)) [Example 249, (+)-2-amino-4-[4-(3-benzyloxyphenylthio)-2-chlorophenyl]-2-methylbutylphosphonate monoester] | < 10 nM | – | 10 to 100 nM | –
4 | CC(N)(CCCc1ccc(Sc2cccc(OCc3ccccc3)c2)cc1Cl)COP(=O)(O)O (single isomer, unassigned; (-)) [Example 240, (−)-2-amino-5-[4-(3-benzyloxyphenylthio)-2-chlorophenyl]-2-methylpentylphosphonate monoester] | 100 to 1000 nM | 200 to 203 °C | 10 to 100 nM | –
5 | CC(N)(CCc1ccc(Sc2cccc(OCc3ccccc3)c2)cc1Cl)COP(=O)(O)O (single isomer, unassigned; (-)) [Example 250, (−)-2-amino-4-[4-(3-benzyloxyphenylthio)-2-chlorophenyl]-2-methylbutylphosphonate monoester] | ≥ 1000 nM | – | 100 to 1000 nM | –
6 | NC(/C=C(/F)P(=O)(O)O)CCc1ccc(Sc2cccc(OCc3ccccc3)c2)cc1Cl (stereo not shown) [Example 253, (Z)-3-amino-5-[4-(3-benzyloxyphenylthio)-2-chlorophenyl]-1-fluoro-1-pentenylphosphonic acid] | 100 to 1000 nM | 285 to 288 °C | 100 to 1000 nM | –
7 | NC(/C=C(\F)P(=O)(O)O)CCc1ccc(Sc2cccc(OCc3ccccc3)c2)cc1Cl (stereo not shown) [Example 254, (E)-3-amino-5-[4-(3-benzyloxyphenylthio)-2-chlorophenyl]-1-fluoro-1-pentenylphosphonic acid] | ≥ 1000 nM | 288 to 290 °C | 10 to 100 nM | –
8 | CC(N)(CCCc1ccc(Sc2cccc(OCc3ccccc3)c2)cc1Cl)CCP(=O)(O)O (stereo not shown) [Example 260, 3-amino-6-[4-(3-benzyloxyphenylthio)-2-chlorophenyl]-3-methylhexylphosphonic acid] | 100 to 1000 nM | 195 to 197 °C | 10 to 100 nM | –
9 | NC(/C=C/P(=O)(O)O)(CO)CCCc1ccc(Sc2cccc(OCc3ccccc3)c2)cc1Cl (stereo not shown) [Example 263, 3-amino-[4-(3-benzyloxyphenylthio)-2-chlorophenyl]-3-hydroxymethyl-1-hexenylphosphonic acid] | 100 to 1000 nM | 243 to 246 °C | < 10 nM | –
10 | NC(CO)(CCCc1ccc(Sc2cccc(OCc3ccccc3)c2)cc1Cl)CCP(=O)(O)O (stereo not shown) [Example 265, 3-amino-6-[4-(3-benzyloxyphenylthio)-2-chlorophenyl]-3-hydroxymethylhexylphosphonic acid] | 100 to 1000 nM | 193 to 196 °C | < 10 nM | –
11 | NC(/C=C/P(=O)(O)O)(CO)CCc1ccc(Sc2cccc(OCc3ccccc3)c2)cc1Cl (stereo not shown) [Example 267, 3-amino-5-[4-(3-benzyloxyphenylthio)-2-chlorophenyl]-3-hydroxymethyl-1-pentenylphosphonic acid] | ≥ 1000 nM | 245 to 248 °C | < 10 nM | –
12 | CCCC(N)(/C=C/P(=O)(OC)OC)CCCc1ccc(Sc2cccc(OCc3ccccc3)c2)cc1Cl (stereo not shown) [Example 280, Dimethyl 3-amino-6-[4-(3-benzyloxyphenylthio)-2-chlorophenyl]-3-propyl-1-hexenylphosphonate hydrochloride] | 100 to 1000 nM | – | 100 to 1000 nM | –

Second part, led by results:

Row | EC50 (hS1P3 receptors) | melting point | EC50 (hS1P1 receptors) | SMILES | inhibition in vivo at 0.03 mg/kg [1]
13 | ≥ 1000 nM | 205 to 208 °C | 10 to 100 nM | NC(CO)(CCc1ccc(Sc2cccc(OCc3ccccc3)c2)cc1Cl)CCP(=O)(O)O (stereo not shown) [Example 269, 3-amino-5-[4-(3-benzyloxyphenylthio)-2-chlorophenyl]-3-hydroxymethylpentylphosphonic acid] | –
14 | 10 to 100 nM | – | 10 to 100 nM | CCCC(N)(/C=C/P(=O)(O)O)CCCc1ccc(Sc2cccc(OCc3ccccc3)c2)cc1Cl (stereo not shown) [Example 283, 3-amino-6-[4-(3-benzyloxyphenylthio)-2-chlorophenyl]-3-propyl-1-hexenylphosphonic acid] | –
15 | 100 to 1000 nM | – | 10 to 100 nM | CCCC(N)(CCCc1ccc(Sc2cccc(OCc3ccccc3)c2)cc1Cl)CCP(=O)(O)O (stereo not shown) [Example 284, 3-amino-6-[4-(3-benzyloxyphenylthio)-2-chlorophenyl]-3-propylhexylphosphonic acid] | –
16 | ≥ 1000 nM | 98 to 101 °C | 10 to 100 nM | Cl.NC(CO)(CCCc1ccc(Sc2cccc(OCc3ccccc3)c2)cc1Cl)CP(=O)(O)O (stereo not shown) [Example 286, 2-amino-5-[4-(3-benzyloxyphenylthio)-2-chlorophenyl]-2-hydroxymethylpentylphosphonate hydrochloride] | –
17 | – | 180 to 183 °C | – | NC(CO)(CCCCc1ccc(Sc2cccc(OCc3ccccc3)c2)cc1Cl)CCP(=O)(O)O (stereo not shown) [Example 289, 3-amino-[4-(3-benzyloxyphenylthio)-2-chlorophenyl]-3-hydroxymethylheptylphosphonic acid] | –
18 | 10 to 100 nM | 258 to 260 °C | < 10 nM | NC(/C=C/P(=O)(O)O)(CO)CCCCc1ccc(Sc2cccc(OCc3ccccc3)c2)cc1Cl (stereo not shown) [Example 290, 3-amino-[4-(3-benzyloxyphenylthio)-2-chlorophenyl]-3-hydroxymethyl-1-heptenylphosphonic acid] | –
19 | 100 to 1000 nM | – | 100 to 1000 nM | NC(CO)(CCCc1ccc(Sc2cccc(OCc3ccccc3)c2)cc1Cl)C(O)C(F)(F)P(=O)(O)O (stereo not shown) [Example 293, 3-amino-6-[4-(3-benzyloxyphenylthio)-2-chlorophenyl]-1,1-difluoro-2-hydroxy-3-hydroxymethylhexylphosphonic acid] | –
20 | ≥ 1000 nM | – | 10 to 100 nM | NC(CO)(CCCc1ccc(Oc2cccc(C(F)(F)F)c2)cc1Cl)CCP(=O)(O)O (stereo not shown) [Example 296, 3-amino-6-[2-chloro-4-(3-trifluoromethylphenoxy)phenyl]-3-hydroxymethylhexylphosphonic acid] | –
21 | ≥ 1000 nM | – | 10 to 100 nM | NC(CO)(CCCc1ccc(Sc2cccc(C(F)(F)F)c2)cc1Cl)COP(=O)(O)O (stereo not shown) [Example 299, 2-amino-5-[2-chloro-4-(3-trifluoromethylphenylthio)phenyl]-2-hydroxymethylpentylphosphonate monoester] | –
22 | ≥ 1000 nM | – | 10 to 100 nM | NC(CO)(CCCc1ccc(Oc2cccc(C(F)(F)F)c2)cc1Cl)COP(=O)(O)O (stereo not shown) [Example 300] | –
23 | ≥ 1000 nM | – | 100 to 1000 nM | NC(CO)(CCc1ccc(Sc2ccc(OCc3ccccc3)cc2)cc1Cl)CCP(=O)(O)O (stereo not shown) [Example 308, 3-amino-5-[4-(4-benzyloxyphenylthio)-2-chlorophenyl]-3-hydroxymethylpentylphosphonic acid] | –
